In ChEMBL document CHEMBL1201862, “PubChem BioAssay data set” (2004):
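96-well plates; 48 h exposure; 5 concentrations. Endpoints by linear interpolation between flanking doses. Not reached: highest tested concentration assigned. GI50 = concentration required for 50% inhibition of growth.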 Activity calls are given as the source filed them. Cut-off read from the data, not from the text of the source: active = GI50 up to about 1.1 µM and inactive = higher.

Tests used:
Experiment in all cases: inhibition of tumour cell growth, NCI panel, 48 h
[1] = tested on: RXF 393
[2] = tested on: ACHN
[3] = tested on: U-251
[4] = tested on: Malme-3M
[5] = tested on: A549
[6] = tested on: MOLT-4
[7] = tested on: RPMI-8226
[8] = tested on: SF-539
[9] = tested on: MDA-N
[10] = tested on: T47D
[11] = tested on: MCF7
[12] = tested on: TK-10
[13] = tested on: SW-620
[14] = tested on: SF-295
[15] = tested on: SK-MEL-28
[16] = tested on: MDA-MB-231
[17] = tested on: CCRF-CEM
[18] = tested on: NCI/ADR-RES
[19] = tested on: HCT-15
[20] = tested on: M14

SMILES: O=C(O)c1cccc(OCCOc2cccc(C(=O)O)c2[N+](=O)[O-])c1[N+](=O)[O-]
- GI50 [1]: > 100 µM (inactive)
- GI50 [2]: > 100 µM (inactive)
- GI50 [3]: > 100 µM (inactive)
- GI50 [4]: > 100 µM (inactive)
- GI50 [5]: > 100 µM (inactive)
- GI50 [6]: > 100 µM (inactive)
- GI50 [7]: > 100 µM (inactive)
- GI50 [8]: > 100 µM (inactive)
- GI50 [9]: > 100 µM (inactive)
- GI50 [10]: > 100 µM (inactive)
- GI50 [11]: > 100 µM (inactive)
- GI50 [12]: > 100 µM (inactive)
- GI50 [13]: > 100 µM (inactive)
- GI50 [14]: > 100 µM (inactive)
- GI50 [15]: > 100 µM (inactive)
- GI50 [16]: > 100 µM (inactive)
- GI50 [17]: > 100 µM (inactive)
- GI50 [18]: > 100 µM (inactive)
- GI50 [19]: > 100 µM
- GI50 [20]: > 100 µM (inactive)

SMILES: O=C(/C=C/c1ccc([N+](=O)[O-])cc1)N1CCN(CCOC(c2ccc(F)cc2)c2ccc(F)cc2)CC1
- GI50 [1]: 9.44 µM (inactive)
- GI50 [2]: 4.34 µM (inactive)
- GI50 [3]: > 100 µM (inactive)
- GI50 [4]: > 100 µM (inactive)
- GI50 [5]: 12 µM (inactive)
- GI50 [6]: 3.6 µM (inactive)
- GI50 [7]: 3.78 µM (inactive)
- GI50 [8]: 45.9 µM (inactive)
- GI50 [9]: 27.1 µM (inactive)
- GI50 [10]: 4.74 µM (inactive)
- GI50 [11]: 5.19 µM (inactive)
- GI50 [12]: > 100 µM (inactive)
- GI50 [13]: > 100 µM (inactive)
- GI50 [14]: 69.5 µM (inactive)
- GI50 [15]: > 100 µM (inactive)
- GI50 [16]: > 100 µM (inactive)
- GI50 [17]: 7.01 µM (inactive)
- GI50 [18]: 4.72 µM (inactive)
- GI50 [19]: 19.1 µM
- GI50 [20]: 6.35 µM (inactive)

SMILES: CCOC1C=CC(=O)C(CO)O1 (centres undefined)
- GI50 [1]: 7.55 µM (inactive)
- GI50 [2]: 10.8 µM (inactive)
- GI50 [3]: 12.7 µM (inactive)
- GI50 [4]: 12.2 µM (inactive)
- GI50 [5]: 17.6 µM (inactive)
- GI50 [6]: 6.65 µM (inactive)
- GI50 [7]: 2.14 µM (inactive)
- GI50 [8]: 9.02 µM (inactive)
- GI50 [9]: 15.3 µM (inactive)
- GI50 [10]: 8.81 µM (inactive)
- GI50 [11]: 4.68 µM (inactive)
- GI50 [12]: 8.43 µM (inactive)
- GI50 [13]: 9.23 µM (inactive)
- GI50 [14]: 17.9 µM (inactive)
- GI50 [15]: 16.9 µM (inactive)
- GI50 [16]: 17.3 µM (inactive)
- GI50 [17]: 1.88 µM (inactive)
- GI50 [18]: 14.9 µM (inactive)
- GI50 [19]: 10 µM
- GI50 [20]: 15 µM (inactive)

SMILES: CC[C@H](C)[C@H]1NC(=O)[C@@H](NC(=O)[C@@H](CC(C)C)N(C)C(=O)C2CCCN2C(=O)[C@H](C)O)[C@@H](C)OC(=O)[C@H](Cc2ccccc2)N(C)C(=O)[C@@H]2CCCN2C(=O)[C@H](CC(C)C)NC(=O)[C@@H](C)C(=O)[C@H](C(C)C)OC(=O)C[C@@H]1O (some centres undefined)
- GI50 [1]: < 0.00625 µM (active)
- GI50 [2]: < 0.00625 µM (active)
- GI50 [3]: < 0.00625 µM (active)
- GI50 [4]: < 0.00625 µM (active)
- GI50 [5]: < 0.00625 µM (active)
- GI50 [6]: < 0.00625 µM (active)
- GI50 [7]: < 0.00625 µM (active)
- GI50 [8]: < 0.00625 µM (active)
- GI50 [9]: < 0.00625 µM (active)
- GI50 [10]: < 0.00625 µM (active)
- GI50 [11]: < 0.00625 µM (active)
- GI50 [12]: < 0.00625 µM (active)
- GI50 [13]: < 0.00625 µM (active)
- GI50 [14]: < 0.00625 µM (active)
- GI50 [15]: < 0.00625 µM (active)
- GI50 [16]: < 0.00625 µM (active)
- GI50 [17]: < 0.00625 µM (active)
- GI50 [18]: 0.0589 µM (active)
- GI50 [19]: 0.00757 µM
- GI50 [20]: < 0.00625 µM (active)

SMILES: O=CC(I)=C(c1ccccc1)c1ccccc1
- GI50 [1]: 15.1 µM (inactive)
- GI50 [2]: 20.7 µM (inactive)
- GI50 [3]: 15.1 µM (inactive)
- GI50 [4]: 16.2 µM (inactive)
- GI50 [5]: 19.5 µM (inactive)
- GI50 [6]: 11.3 µM (inactive)
- GI50 [7]: 8.51 µM (inactive)
- GI50 [8]: 23.2 µM (inactive)
- GI50 [9]: 17 µM (inactive)
- GI50 [10]: 13.3 µM (inactive)
- GI50 [11]: 16.3 µM (inactive)
- GI50 [12]: 19.5 µM (inactive)
- GI50 [13]: 8.47 µM (inactive)
- GI50 [14]: 17.3 µM (inactive)
- GI50 [15]: 17.2 µM (inactive)
- GI50 [16]: 14.6 µM (inactive)
- GI50 [17]: 15.3 µM (inactive)
- GI50 [18]: 20 µM (inactive)
- GI50 [19]: 14.1 µM
- GI50 [20]: 18.5 µM (inactive)

SMILES: CCCCNc1nc(O)c2[nH]cnc2n1
- GI50 [1]: > 100 µM (inactive)
- GI50 [2]: > 100 µM (inactive)
- GI50 [3]: > 100 µM (inactive)
- GI50 [4]: > 100 µM (inactive)
- GI50 [5]: > 100 µM (inactive)
- GI50 [6]: > 100 µM (inactive)
- GI50 [7]: > 100 µM (inactive)
- GI50 [8]: > 100 µM (inactive)
- GI50 [9]: > 100 µM (inactive)
- GI50 [10]: > 100 µM (inactive)
- GI50 [11]: > 100 µM (inactive)
- GI50 [12]: > 100 µM (inactive)
- GI50 [13]: > 100 µM (inactive)
- GI50 [14]: > 100 µM (inactive)
- GI50 [16]: > 100 µM (inactive)
- GI50 [17]: > 100 µM (inactive)
- GI50 [18]: > 100 µM (inactive)
- GI50 [19]: > 100 µM
- GI50 [20]: > 100 µM (inactive)

SMILES: O=C(Nc1sccc1S(=O)(=O)c1ccc(Cl)cc1)c1ccccc1
- GI50 [1]: > 100 µM (inactive)
- GI50 [2]: > 100 µM (inactive)
- GI50 [3]: > 100 µM (inactive)
- GI50 [4]: > 100 µM (inactive)
- GI50 [5]: > 100 µM (inactive)
- GI50 [6]: > 100 µM (inactive)
- GI50 [7]: > 100 µM (inactive)
- GI50 [8]: 60.1 µM (inactive)
- GI50 [9]: > 100 µM (inactive)
- GI50 [10]: > 100 µM (inactive)
- GI50 [11]: > 100 µM (inactive)
- GI50 [12]: 40.1 µM (inactive)
- GI50 [13]: > 100 µM (inactive)
- GI50 [14]: > 100 µM (inactive)
- GI50 [15]: > 100 µM (inactive)
- GI50 [16]: > 100 µM (inactive)
- GI50 [17]: > 100 µM (inactive)
- GI50 [18]: > 100 µM (inactive)
- GI50 [19]: > 100 µM
- GI50 [20]: > 100 µM (inactive)
